Our source for the ED50 values is patent publication US5624950A, “Perhydroisoindole derivatives as substance P antagonists” (Rhone-Poulenc Rorer S.A., priority 1993, dated 1997).

The experiment deals with capillary permeability brought about by septide (substance P agonist). Nature of the experiment: inhibition of the increase of capillary permeability brought about by septide. Format: in vivo. The conditions noted are these: Cavia porcellus, guinea pig, septide-induced capillary permeability. From the text: The study of certain isoindole derivatives of general formula (I) in the technique of A. Saria et al., Arch.

Consider `COc1ccccc1[C@H](C)C(=O)N1C[C@H]2C[C@H](C)C[C@](O)(c3ccccc3OC)[C@H]2C1` (relative stereo) [Example 1, (3aR*,4R*,6S*,7aS*)-4-(2-methoxyphenyl)-2-[2-(S)-(2-methoxyphenyl)propionyl]-6-methyl-4-perhydroisoindolol], for which the median effective dose (ED50) (as a rule, the dose that gives a 50% effect, or the effect in half of the subjects) is 0.07 mg/kg (iv) and 3 to 10 mg/kg (po).
